Test results as given in patent US8889156B2, “Calcium-binding agents induce hair growth and/or nail growth” (priority 2009, dated 2014).
Entries after “also recorded” stand apart in the source; their conditions may differ.

Key:
[1] = Nucleation of hydroxyapatite on tooth enamel (SBFn/SBFg, SEM); parameters: species or system human; conditions: demineralized enamel, 12.5 μM peptide
Method: To determine whether applying DSS to various preparations of tissue promoted HA nucleation, that could ultimately lead to tissue remineralization, sagittally sectioned adult human teeth (obtained after extraction during normal clinical practice) were polished using a Streurs grinding wheel, and prepared for nucleation experiments. Half of the sections were demineralized with 35% phosphoric acid for 15 minutes, then rinsed thoroughly with deionized water. The other half were left untreated. All samples were then sonicated for five minutes to remove excess debris left from cutting and grinding and/or demineralization. Samples were treated with 12.5 μM 8DSS dissolved in 50 mM HEPES buffer solution (pH 7.0), buffer solution only, or left untreated. Samples were then immersed into a simulated body fluid (SBFn), meant to accelerate nucleation of hydroxyapatite (HA) crystals, for 4 hours. Following the nucleation step, samples were immersed in a magnesium and bicarbonate free solution (SBFg) in order to allow the nucleated HA crystals to grow. […] Both solutions were adjusted to pH 6.8. Crystals were grown in order to amplify the nucleated crystals for easy visualization by SEM.

[2] = Tissue specific binding of labeled peptides to sections of human teeth (CLSM); conditions: 5(6)-carboxyfluorescein-labeled peptide, ten minutes
Description: In order to investigate the tissue specificity of DSS peptide binding to tooth tissue, sections of human teeth were exposed to DSS peptides and variants, then imaged by CLSM. The peptides utilized for these experiments were 8DSS (SEQ ID NO:33), 8ASS (SEQ ID NO:26), 8DAA (SEQ ID NO:40), 8NAA (SEQ ID NO:41), 4DSS (SEQ ID NO:31), 4ESS (SEQ ID NO:34), 4NSS (SEQ ID NO:35), 4DTT (SEQ ID NO:36), 4ETT (SEQ ID NO:37), 4NTT (SEQ ID NO:38), and 6DSS (SEQ ID NO:32). Sagittal sections of human teeth extracted during normal clinical practice were polished and then incubated for ten minutes in a solution of the appropriate 5(6) carboxyfluorescein-labeled peptide (12.5pM) containing 10 mM NaCl and 50 mM HEPES, pH 7.0. Control samples were prepared without peptide. Samples were washed extensively after treatment and imaged by CLSM using blue laser illumination (A=488 nm) and a FITC emission filter, with identical camera and microscope settings for each sample. For each section, multiple scans were collected and assembled in an automated mode to generate panels of images representing an area of 13×13 mm, sufficient in most cases to encompass the whole section. […] Significant binding was also seen to the edges of the pulp cavity.

[3] = Binding of labeled peptides to carious lesions in teeth (CLSM); parameters: species or system human; conditions: labeled peptide, settings optimized per sample
Description: Sections of human teeth containing obvious carious lesions, which consist of demineralized enamel, were polished and exposed to 5(6)-carboxyfluorescein-labeled DSS peptides and variants. The sections were washed extensively and imaged by CLSM using blue laser illumination (A=488 nm) and a FITC emission filter, with microscope and camera settings adjusted for each sample to optimize the signal detected from each peptide. The images were examined to identify the relative levels of peptide binding in healthy versus carious tissue. […] Given their ability to remineralize at sites of enamel degradation, they can also be used to initiate remineralization at sites of enamel degradation such as caries or injury sites without causing inappropriate nucleation on healthy tissue surfaces.

[4] = Binding of calcium phosphate to immobilized DSS peptides on streptavidin-coated polystyrene beads; conditions: biotin-conjugated peptide on beads, saturated CaHPO4 solutions
Method: Streptavidin-coated polystyrene beads with an average diameter of 4 μm (Spherotech, Lake Forest, Ill.) were incubated with either biotin-conjugated 8DSS (SEQ ID NO:33) peptide or unconjugated biotin (control beads). Beads were washed with PBS to remove unbound peptide (or unbound biotin in control beads) and incubated in a solution of PBS+1 mM CaCl2+1 mM NaHPO4 for 12 days prior to imaging. […] DSS-containing peptides containing C-terminal biotin labels were then synthesized and immobilized on streptavidin-coated beads. The beads were washed and incubated in solutions containing varying concentrations of CaHPO4 as before. Consistent with previous observations for the dentin phosphoproteins/phosphosphoryns as well as other phosphoproteins (Saito et al. (1997) Bone 21: 305-311; Saito et al. (2000) J Bone Miner Res., 15: 1615-1619), these immobilized peptides caused coaggregation of the beads with particles of amorphous CaHPO4 and eventually led to the deposition of crystalline material around the bead. […] By comparison, in the biotin-blocked control sample, nearly all beads were unaggregated and unassociated with precipitate (FIG. 9, panel B).

[5] = DSS-mediated remineralization of demineralized tooth surfaces with Quell Desensitizer (SEM); parameters: species or system human; conditions: peptide pretreatment 1 h, then Quell Desensitizer 15 min
Method: Adult human molars, extracted during normal clinical practice, were sagittally sectioned (Accutom-50, Copenhagen, Denmark; CA-231 diamond blade) and demineralized with 19% ethylenediaminotetraacetic acid (EDTA) gel for 1 h, followed by immersion in deionized water and ultrasonication to remove debris. Samples were treated with either 12.5 p.M 8DSS (SEQ ID NO:33) peptide in 50 mM HEPES buffer (pH 7.0) or buffer alone (no peptide) or were left untreated for 1 h prior to remineralization with Quell Desensitizer (Pentron Technologies, Wallingford, Conn.), a remineralization solution consisting of aqueous solutions of calcium chloride and potassium phosphate, for 15 min. Samples were rinsed thoroughly prior to imaging by scanning electron microscopy. Having established that (DSS)n-containing peptides can bind to the dentin surface and that immobilized peptides could cause the accretion of calcium phosphate, we sought to determine whether these peptides could be used to recruit calcium phosphate to the dentin surface. Demineralized sections of extracted human teeth were treated with 8DSS (SEQ ID NO:33) peptide and then subjected to remineralization with Quell Desensitizer (Pentron Technologies), a commercially available remineralization product consisting of aqueous solutions of calcium chloride and potassium phosphate.

DSS DSS DSSDSS DSS DSS DSS DSS (DSSDSSDSSDSSDSSDSSDSSDSS; synthetic calcium-binding peptide 8DSS)
crystal growth (nucleation) on enamel [1]: significant crystal growth
tissue pattern of binding in the tooth section [2]: bound primarily to the mantle dentin
level of binding (staining) to tooth surfaces ([2]; identical settings): the greatest levels of staining
specificity of binding to carious lesions versus healthy enamel [3]: highly specific binding to carious lesions
strength of staining of carious lesions [3]: exceptionally strong staining of carious lesions
aggregation/accretion of calcium phosphate by immobilized peptide [4]: effectively aggregate amorphous calcium phosphate
mineral accumulation on demineralized dentin [5]: accumulated a continuous layer of calcium phosphate precipitate; also recorded: markedly enhanced the effectiveness of a commercially available remineralization product
